For one assay, the system named is MOLT-4 cells. Nature of the assay: MOLT-4 cell viability using MTT assay. The class given is cell-based. Conditions: Homo sapiens, MOLT-4, 48 h, 48 h exposure. The protocol:
MTT colorimetric assay is based on the mitochondrial reduction of tetrazolium salt by living cells.
Cells were cultured at 37° C. in a humidified atmosphere containing 5% CO2. […] At the end of incubation time, 15 μL of MTT solution (5 mg/ml) were added per well and the cells were incubated for another 4 h. […] IC50s were calculated using standard four-parametric curve fitting.

The subject of the next assay is H146 cells. Briefly: H146 cell viability using MTT assay. The class given is cell-based. Particulars: Homo sapiens, NCI-H146, 48 h exposure. The protocol:
MTT colorimetric assay is based on the mitochondrial reduction of tetrazolium salt by living cells. The viable cell number is proportional to the production of formazan salts, which can be read spectrophotometrically at 540 nm.
MOLT-4 and H146 cells were purchased from ATCC and cultivated in RPMI 1640 supplemented with 10% heat inactivated fetal bovine serum, penicillin (100 IU/ml), streptomycin (100 μg/ml) and L-glutamine (2 mM). Cells were cultured at 37° C. in a humidified atmosphere containing 5% CO2. Cells were seeded in 96 microwell plates (150p per well) and exposed to the compounds for 48 h (3.16 fold serially diluted; 9 concentrations each, triplicates). At the end of incubation time, 15 μL of MTT solution (5 mg/ml) were added per well and the cells were incubated for another 4 h. Then, 100 μL of 10% Sodium Dodecyl Sulfate (SDS)/HCl 10 mM were added per well and the plate was incubated overnight, before measurement of optical density at 540 nm. IC50s were calculated using standard four-parametric curve fitting.

The target of assay [1] is His-His-(EK)-hsBCLXL(2-197)[N197C] (Homo sapiens (Human), UniProt Q07817, N197C). Nature of the assay: Fluorescence quenching assay. The class given is binding. Particulars: 1 nM Cy5-labelled protein, 400 nM PUMA peptide, 2 hours at 23° C.; KI determined from IC50. In short, it runs like this:
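Cy5-labelled BCL-xL (1 nM) with TQ5WS quencher-labelled PUMA peptide (400 nM); displacement by compound (11-point dilution) raises fluorescence. Buffer 10 mM HEPES, 150 mM NaCl, 0.05% Tween 20, pH 7.4, 5% DMSO; 2 h at 23° C, Ex 620/Em 680 nm. Ki derived from IC50.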

Chain of His-His-(EK)-hsBCLXL(2-197)[N197C] (Q07817 2-197 N197C): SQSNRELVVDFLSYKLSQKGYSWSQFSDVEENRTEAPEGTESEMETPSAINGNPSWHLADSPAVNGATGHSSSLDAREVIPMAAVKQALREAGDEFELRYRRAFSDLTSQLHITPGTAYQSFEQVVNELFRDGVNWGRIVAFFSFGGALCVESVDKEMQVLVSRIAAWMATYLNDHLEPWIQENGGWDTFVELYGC

Consider `Cc1c(Nc2nc3ccccc3s2)nnc2c1CCN2c1nc(C(=O)O)cs1` [Example 11, 2-{3-[(1,3-Benzothiazol-2-yl)amino]-4-methyl-5H,6H,7H-pyrrolo[2,3-c]pyridazin-7-yl}-1,3-thiazole-4-carboxylic acid], for which the IC50 worked out at 2430 nM in the assay with MOLT-4 cells and 6360 nM in the assay with H146 cells.
With `CNCC#Cc1ccc(OCCCc2sc(N3CCc4c3nnc(Nc3nc5ccccc5s3)c4C)nc2C(=O)O)c(F)c1` [Example 37, 2-[3-(1,3-Benzothiazol-2-ylamino)-4-methyl-5,6-dihydropyrrolo[2,3-c]pyridazin-7-yl]-5-[3-[2-fluoro-4-[3-(methylamino)prop-1-ynyl]phenoxy]propyl]thiazole-4-carboxylic acid], the IC50 was determined as 4.61 nM in the assay with MOLT-4 cells and 10.2 nM in the assay with H146 cells. For the same compound, the Ki in assay [1] came out at 7.7 pM.
In the same order, the values of `CNCC#Cc1ccc(OCCCc2sc(N3CC(O)Cc4c3nnc(Nc3nc5ccccc5s3)c4C)nc2C(=O)O)c(F)c1` (stereo not shown) [Example 38, 2-[3-(1,3-Benzothiazol-2-ylamino)-6-hydroxy-4-methyl-6,7-dihydro-5H-pyrido[2,3-c]pyridazin-8-yl]-5-[3-[2-fluoro-4-[3-(methylamino)prop-1-ynyl]phenoxy]propyl]thiazole-4-carboxylic acid] are 59.4 nM, 22.1 nM and 2.9 pM.
In the same order, the values of `CNCCN[C@@H]1Cc2c(nnc(Nc3nc4ccccc4s3)c2C)N(c2nc(C(=O)O)c(CCCOc3ccc(CCCN(C)C)cc3F)s2)C1` [Example 39, 2-[(6R)-3-[(1,3-Benzothiazol-2-yl)amino]-4-methyl-6-{[2-(methylamino)ethyl]amino}-5H,6H,7H,8H-pyrido[2,3-c]pyridazin-8-yl]-5-(3-{4-[3-(dimethylamino)propyl]-2-fluorophenoxy}propyl)-1,3-thiazole-4-carboxylic acid] are 37.1 nM, 33.6 nM and 9.8 pM.
In the case of `Cc1c(Nc2nc3ccccc3s2)nnc2c1CCCN2c1nc(C(=O)O)c(CCCOc2ccc(C#CCN(C)C)cc2C(F)(F)F)s1` [Example 40, 2-{3-[(1,3-Benzothiazol-2-yl)amino]-4-methyl-5H,6H,7H,8H-pyrido[2,3-c]pyridazin-8-yl}-5-(3-{4-[3-(dimethylamino)prop-1-yn-1-yl]-2-(trifluoromethyl)phenoxy}propyl)-1,3-thiazole-4-carboxylic acid], the IC50 in the assay on MOLT-4 cells was 8.16 nM; with H146 cells, 20.8 nM. Also, the inhibitory constant (Ki) in assay [1] was determined as 57 pM.
In the same order, the values of `Cc1c(Nc2nc3ccccc3s2)nnc2c1CCCN2c1nc(C(=O)O)c(CCCOc2ccc(C#CC(C)N3CCN(C)CC3)cc2F)s1` (stereo not shown) [Example 41, 2-[3-(1,3-Benzothiazol-2-ylamino)-4-methyl-6,7-dihydro-5H-pyrido[2,3-c]pyridazin-8-yl]-5-[3-[2-fluoro-4-[3-(4-methylpiperazin-1-yl)but-1-ynyl]phenoxy]propyl]thiazole-4-carboxylic acid] are 0.36 nM, 3.67 nM and 2.5 pM.
In the same order, the values of `Cc1c(Nc2nc3ccccc3s2)nnc2c1CCCN2c1nc(C(=O)O)c(CCCOc2ccc(C#CCN3CCCC3)cc2F)s1` [Example 42, 2-[3-(1,3-Benzothiazol-2-ylamino)-4-methyl-6,7-dihydro-5H-pyrido[2,3-c]pyridazin-8-yl]-5-[3-[2-fluoro-4-(3-pyrrolidin-1-ylprop-1-ynyl)phenoxy]propyl]thiazole-4-carboxylic acid] are 0.327 nM, 3.02 nM and 2.8 pM.
In the same order, the values of `Cc1c(Nc2nc3ccccc3s2)nnc2c1CCCN2c1nc(C(=O)O)c(CCCOc2ccc(C#CC(C)N3CCCC3)cc2F)s1` (stereo not shown) [Example 43, 2-[3-(1,3-Benzothiazol-2-ylamino)-4-methyl-6,7-dihydro-5H-pyrido[2,3-c]pyridazin-8-yl]-5-[3-[2-fluoro-4-(3-pyrrolidin-1-ylbut-1-ynyl)phenoxy]propyl]thiazole-4-carboxylic acid] are 1.71 nM, 11.7 nM and 3.1 pM.
For the compound `Cc1c(Nc2nc3ccccc3s2)nnc2c1CCCN2c1nc(C(=O)O)c(CCCOc2ccc(OCCN(C)C)cc2)s1` [Example 44, 2-{3-[(1,3-Benzothiazol-2-yl)amino]-4-methyl-5H,6H,7H,8H-pyrido[2,3-c]pyridazin-8-yl}-5-(3-{4-[2-(dimethylamino)ethoxy]phenoxy}propyl)-1,3-thiazole-4-carboxylic acid], the concentration for half-maximal inhibition (IC50) in the assay on MOLT-4 cells stood at 4.04 nM; in the assay on H146 cells, 10.7 nM. Also, the Ki in assay [1] came to 1.5 pM.
In the same order, the values of `Cc1c(Nc2nc3ccccc3s2)nnc2c1CCCN2c1nc(C(=O)O)c(CCCOc2ccc(C#CCN3CCC3)cc2F)s1` [Example 45, 5-(3-{4-[3-(Azetidin-1-yl)prop-1-yn-1-yl]-2-fluorophenoxy}propyl)-2-{3-[(1,3-benzothiazol-2-yl)amino]-4-methyl-5H,6H,7H,8H-pyrido[2,3-c]pyridazin-8-yl}-1,3-thiazole-4-carboxylic acid] are 0.551 nM, 10.6 nM and 4.9 pM.
On to `Cc1c(Nc2nc3ccccc3s2)nnc2c1CCCN2c1nc(C(=O)O)c(CCCOc2ccc(C#CCN3C[C@@H]4[C@H](C3)C4(F)F)cc2F)s1` [Example 63, 2-[3-(1,3-Benzothiazol-2-ylamino)-4-methyl-6,7-dihydro-5H-pyrido[2,3-c]pyridazin-8-yl]-5-[3-[4-[3-[(1S,5R)-6,6-difluoro-3-azabicyclo[3.1.0]hexan-3-yl]prop-1-ynyl]-2-fluoro-phenoxy]propyl]thiazole-4-carboxylic acid], for which the Ki in assay [1] is 81 pM. Moreover, the IC50 with H146 cells was determined as 20.2 nM.
`Cc1c(Nc2nc3ccccc3s2)nnc2c1CCCN2c1ccc(-c2cnn(CC34CC5(C)CC(C)(CC(CCCNCC[C@H](O)CO)(C5)C3)C4)c2C)c(C(=O)O)n1` [Example 172, 6-[3-(1,3-benzothiazol-2-ylamino)-4-methyl-6,7-dihydro-5H-pyrido[2,3-c]pyridazin-8-yl]-3-[1-[[3-[3-[[(3S)-3,4-dihydroxybutyl]amino]propyl]-5,7-dimethyl-1-adamantyl]methyl]-5-methyl-pyrazol-4-yl]pyridine-2-carboxylic acid] displayed an IC50 with MOLT-4 cells of 3.25 nM. Moreover, in assay [1], the Ki is 2 pM.
In the case of `Cc1c(Nc2nc3cccc(F)c3s2)nnc2c1CCCN2c1ccc(-c2cnn(CC34CC5(C)CC(C)(C3)CC(OCCN3CCCC3)(C5)C4)c2C)c(C(=O)O)n1` [Example 178, 3-[1-[[3,5-dimethyl-7-(2-pyrrolidin-1-ylethoxy)-1-adamantyl]methyl]-5-methyl-pyrazol-4-yl]-6-[3-[(7-fluoro-1,3-benzothiazol-2-yl)amino]-4-methyl-6,7-dihydro-5H-pyrido[2,3-c]pyridazin-8-yl]pyridine-2-carboxylic acid], the IC50 in the assay on MOLT-4 cells is 0.641 nM. Besides, the Ki in assay [1] came out at 2.2 pM.
In the same order, the values of `Cc1ccc2sc(Nc3nnc4c(c3C)CCCN4c3ccc(-c4cnn(CC56CC7(C)CC(C)(C5)CC(OCCN5CCCC5)(C7)C6)c4C)c(C(=O)O)n3)nc2c1` [Example 179, 3-[1-[[3,5-dimethyl-7-(2-pyrrolidin-1-ylethoxy)-1-adamantyl]methyl]-5-methyl-pyrazol-4-yl]-6-[4-methyl-3-[(5-methyl-1,3-benzothiazol-2-yl)amino]-6,7-dihydro-5H-pyrido[2,3-c]pyridazin-8-yl]pyridine-2-carboxylic acid] are 0.0916 nM and 2.9 pM.

For the origin of these results see patent US12570648B2, “6,7-dihydro-5H-pyrido[2,3-c]pyridazine derivatives and related compounds as Bcl-xL protein inhibitors and pro-apoptotic agents for treating cancer” (LES LABORATOIRES SERVIER, priority 2019, dated 2026).
